One series concerns the target CYP2D6 (Homo sapiens, UniProt P10635). Briefly: Luminescent P450-Glo recombinant human CYP2D6 inhibition assay. The text has this: (§1) The inhibitory effects of B. monnieri standardized extract and the constituents bacoside A, bacoside A3, bacopaside II, bacopaside X, bacopasaponin C and bacopaside I on human cytochrome P450 enzyme were examined using an in vitro luminescent assay. The P450-Glo™ substrates are converted by CYP enzymes to a luciferin product that reacts with a Luciferin Detection Reagent to produce light. The amount of light produced is directly proportional to the CYP enzyme activity. The net signals from untreated (added with buffer or solvent) CYP reactions represent total CYP activity (without any inhibition = 100%). […] The test compounds that inhibit CYP enzymes caused a reduction in CYP activity and therefore generated less light/signal.
(§2) The assay was carried out using P450-Glo™ Screening System (Cat.# V9770, V9790, V9880, V9890, V9910) from Promega (Madison, WI, USA). The system includes a membrane preparation containing recombinant human cytochrome P450 (CYP) enzyme, negative control membranes, a luminogenic substrate appropriate for the CYP enzyme, an NADPH regeneration system (containing nicotinamide adenine dinucleotide phosphate (NADP^+), glucose-6-phosphate, magnesium chloride (MgCl2) and glucose-6-phosphate dehydrogenase functioning to initiate and sustain the CYP450 reaction by maintaining a non-limiting NADPH system), reaction buffer, Luciferin Detection Reagent and Luciferin-Free Water. The membranes were prepared from baculovirus-infected insect cells and contained recombinant human CYP enzyme and P450 reductase (and cytochrome b5 for CYP2C9, 2C19 and 3A4). The negative control membranes were devoid of CYP activity. The dried powder of B. monnieri standardized methanolic extract containing 50% bacosides (batch No.: C92352/H) was purchased from Sami Labs Ltd. (Karnataka, India). Bacoside A, bacoside A3, bacopaside II, bacopaside X, bacopasaponin C and bacopaside I were purchased from Chromadex Inc. (Irvine, CA, USA).
(§3) The enzyme assay was performed in 96-well white bottom flat plates (Nunc, Roskilde, Denmark). The concentration of B. monnieri extract was 0.01–1000 µg/mL, and the positive controls and compounds (bacoside A, bacoside A3, bacopaside II, bacopaside X, bacopasaponin C and bacopaside I) were 0.01–100 µM. The concentration of the extracts, compounds and positive controls were prepared at 4× the original concentration. All extracts and compounds were dissolved in dimethyl sulfoxide (DMSO). The organic solvent was kept below 0.25% (v/v) in the incubation mixture. First, 12.5 μL of the 4× test compounds or positive controls (appropriate for each enzyme) were added to the “treated” wells. For the “untreated” (the values from these wells represent total CYP activity) and “minus-P450 control” wells (the values from these wells represent the CYP-independent background luminescence of the assay), 12.5 μL of vehicle (1% DMSO) was added. Then, 12.5 μL of the 4× control reaction mixture (containing membrane preparations devoid of CYP enzymes, the appropriate luminogenic substrate, and potassium phosphate buffer) were added to the minus-P450 control wells, and 12.5 μL of the 4× reaction mixture (containing human CYP membrane preparations, the appropriate luminogenic substrate, and potassium phosphate buffer) were added to all other wells. The plate was pre-incubated at room temperature for 10 min, and then 2× NADPH regeneration system was added to initiate the reaction. After incubation at room temperature for 30 min (45 min for CYP2D6), 50 μL of the reconstituted Luciferin Detection Reagent was added to stop the reaction and generate the luminescent signal. Before reading, the plate was incubated at room temperature for 20 min to stabilize the luminescent signal. The luminescence in all of the samples was measured using an Infinite F200 plate reader (Tecan, Männedorf, Switzerland).

In a further series the target is CYP3A4 (Homo sapiens, UniProt P08684). Briefly: Luminescent P450-Glo recombinant human CYP3A4 inhibition assay.
Sequence of CYP3A4 (P08684 2-503): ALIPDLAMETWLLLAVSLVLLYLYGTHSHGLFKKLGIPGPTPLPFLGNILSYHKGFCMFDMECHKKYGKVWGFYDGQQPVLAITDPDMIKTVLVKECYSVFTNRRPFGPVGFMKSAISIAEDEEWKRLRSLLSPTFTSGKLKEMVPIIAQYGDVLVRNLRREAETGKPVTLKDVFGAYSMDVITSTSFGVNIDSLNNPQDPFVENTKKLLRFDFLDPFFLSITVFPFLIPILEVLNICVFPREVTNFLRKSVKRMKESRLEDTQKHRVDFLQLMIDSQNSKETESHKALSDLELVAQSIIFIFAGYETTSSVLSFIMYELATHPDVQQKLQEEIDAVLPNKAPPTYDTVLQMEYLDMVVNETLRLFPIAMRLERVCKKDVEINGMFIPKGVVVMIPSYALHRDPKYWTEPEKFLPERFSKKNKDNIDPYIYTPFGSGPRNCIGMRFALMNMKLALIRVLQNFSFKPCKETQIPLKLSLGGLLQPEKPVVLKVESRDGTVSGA
Source text: as §1, §2, §3

The target of a further series is CYP2C9 (Homo sapiens, UniProt P11712). Description: Luminescent P450-Glo recombinant human CYP2C9 inhibition assay.
Sequence of CYP2C9 (P11712 whole entry): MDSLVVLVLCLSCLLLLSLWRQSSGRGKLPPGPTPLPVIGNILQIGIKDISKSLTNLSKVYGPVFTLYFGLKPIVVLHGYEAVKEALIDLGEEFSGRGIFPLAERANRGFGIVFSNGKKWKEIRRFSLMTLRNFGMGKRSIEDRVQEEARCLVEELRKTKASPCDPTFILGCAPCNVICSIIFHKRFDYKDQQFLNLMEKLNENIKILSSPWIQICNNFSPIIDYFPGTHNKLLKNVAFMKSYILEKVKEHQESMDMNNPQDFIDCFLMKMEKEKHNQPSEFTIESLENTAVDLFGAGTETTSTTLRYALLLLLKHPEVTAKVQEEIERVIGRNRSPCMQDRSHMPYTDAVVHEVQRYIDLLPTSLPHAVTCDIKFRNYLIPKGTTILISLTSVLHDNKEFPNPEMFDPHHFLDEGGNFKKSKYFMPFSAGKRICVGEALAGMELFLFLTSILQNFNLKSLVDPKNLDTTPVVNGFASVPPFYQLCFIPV
Source text: as §1, §2, §3

The target in another series is CYP2C19 (Homo sapiens, UniProt P33261). Description: Luminescent P450-Glo recombinant human CYP2C19 inhibition assay.
Sequence of CYP2C19 (P33261 whole entry): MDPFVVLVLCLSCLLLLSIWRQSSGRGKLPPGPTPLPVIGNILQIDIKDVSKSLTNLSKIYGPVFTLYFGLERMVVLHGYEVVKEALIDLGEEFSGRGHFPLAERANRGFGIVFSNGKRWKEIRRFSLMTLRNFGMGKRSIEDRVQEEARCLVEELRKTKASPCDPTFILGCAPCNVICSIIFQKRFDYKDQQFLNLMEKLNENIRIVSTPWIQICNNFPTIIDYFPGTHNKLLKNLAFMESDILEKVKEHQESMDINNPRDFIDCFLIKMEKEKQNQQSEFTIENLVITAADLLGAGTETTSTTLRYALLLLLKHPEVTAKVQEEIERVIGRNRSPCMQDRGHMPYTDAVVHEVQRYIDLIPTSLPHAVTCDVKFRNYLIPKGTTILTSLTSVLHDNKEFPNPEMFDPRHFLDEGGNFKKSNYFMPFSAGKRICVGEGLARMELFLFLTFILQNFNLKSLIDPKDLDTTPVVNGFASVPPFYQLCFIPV
Source text: as §1, §2, §3

A further series deals with T1, CYP1A2 (Homo sapiens, UniProt P05177).
T1 sequence (P05177 2-516 limits assumed): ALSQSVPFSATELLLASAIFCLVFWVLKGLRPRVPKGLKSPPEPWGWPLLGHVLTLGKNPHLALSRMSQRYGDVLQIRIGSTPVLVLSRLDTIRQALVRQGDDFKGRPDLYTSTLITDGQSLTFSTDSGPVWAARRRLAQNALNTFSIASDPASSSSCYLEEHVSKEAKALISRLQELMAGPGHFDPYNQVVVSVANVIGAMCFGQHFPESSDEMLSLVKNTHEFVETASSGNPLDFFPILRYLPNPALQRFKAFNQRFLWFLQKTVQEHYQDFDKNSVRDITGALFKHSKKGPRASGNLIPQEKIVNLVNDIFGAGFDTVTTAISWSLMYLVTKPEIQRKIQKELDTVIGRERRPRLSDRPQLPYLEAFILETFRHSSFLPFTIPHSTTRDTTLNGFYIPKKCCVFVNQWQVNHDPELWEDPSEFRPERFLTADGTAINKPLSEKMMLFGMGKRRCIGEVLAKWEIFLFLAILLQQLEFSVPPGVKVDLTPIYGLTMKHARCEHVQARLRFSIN
Briefly: Luminescent P450-Glo recombinant human CYP1A2 inhibition assay.
Source text: as §1, §2, §3

pIC50: −log10 of the molar value.

Sequence of CYP2D6 (P10635 whole entry): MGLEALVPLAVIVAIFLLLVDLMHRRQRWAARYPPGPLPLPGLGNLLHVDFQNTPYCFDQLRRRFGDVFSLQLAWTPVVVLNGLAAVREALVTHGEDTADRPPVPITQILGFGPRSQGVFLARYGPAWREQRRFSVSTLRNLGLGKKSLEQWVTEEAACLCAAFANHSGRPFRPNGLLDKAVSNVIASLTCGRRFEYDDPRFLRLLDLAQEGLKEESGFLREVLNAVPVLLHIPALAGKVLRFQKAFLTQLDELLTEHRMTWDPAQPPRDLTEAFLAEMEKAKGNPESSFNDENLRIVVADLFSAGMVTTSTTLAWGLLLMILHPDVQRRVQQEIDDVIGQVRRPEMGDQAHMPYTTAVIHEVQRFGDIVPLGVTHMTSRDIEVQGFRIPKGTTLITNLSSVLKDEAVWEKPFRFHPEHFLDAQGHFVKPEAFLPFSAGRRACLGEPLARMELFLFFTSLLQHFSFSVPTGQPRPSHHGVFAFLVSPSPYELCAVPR

On to `CC(C)=C[C@@H]1CO[C@]23C[C@]4(CO2)[C@H](CC[C@@H]2[C@@]5(C)CC[C@H](O[C@@H]6OC[C@H](O)[C@H](O[C@@H]7O[C@H](CO)[C@@H](O)[C@H](O)[C@H]7O)[C@H]6O[C@@H]6O[C@@H](CO)[C@H](O)[C@H]6O)C(C)(C)[C@@H]5CC[C@]24C)[C@H]3[C@@]1(C)O` [bacopasaponin C], for which the pIC50 at CYP2D6, at CYP3A4, at CYP2C9, on CYP2C19 and at CYP1A2 was < 4.00 throughout.
In the case of `CC(C)=CC1COC23CC4(CO2)C(CCC2C5(C)CCC(OC6OC(CO)C(O)C(OC7OC(CO)C(O)C(O)C7O)C6OC6OC(CO)C(O)C6O)C(C)(C)C5CCC24C)C3C1(C)O` (stereo not drawn) [bacopaside II], the pIC50 on CYP2D6, on CYP3A4, on CYP2C9, at CYP2C19 and on CYP1A2 was < 4.00 throughout.
For `CC(C)=CC1COC23CC4(CO2)C(CCC2C5(C)CCC(OC6OCC(O)C(OC7OC(COS(=O)(=O)O)C(O)C(O)C7O)C6OC6OC(CO)C(O)C6O)C(C)(C)C5CCC24C)C3C1(C)O` (stereo not drawn) [bacopaside I], the negative-log IC50 (pIC50) on CYP2D6, at CYP3A4, on CYP2C9, at CYP2C19 and on CYP1A2 was < 4.00 in each case.
As to `CC(C)=C[C@H]1C[C@](C)(O)[C@@H]2[C@H]3CC[C@@H]4[C@@]5(C)CC[C@H](O[C@@H]6OC[C@H](O)[C@H](O[C@@H]7O[C@H](CO)[C@@H](O)[C@H](O)[C@H]7O)[C@H]6O[C@@H]6O[C@@H](CO)[C@H](O)[C@H]6O)C(C)(C)[C@@H]5CC[C@@]4(C)[C@@]34CO[C@@]2(C4)O1` [bacopaside X], the pIC50 on CYP2D6, at CYP3A4, at CYP2C9, on CYP2C19 and at CYP1A2 was < 4.00 each time.
Consider `CC(C)=C[C@H]1C[C@](C)(O)[C@@H]2[C@H]3CC[C@@H]4[C@@]5(C)CC[C@H](O[C@@H]6O[C@H](CO)[C@@H](O)[C@H](O[C@@H]7O[C@H](CO)[C@@H](O)[C@H](O)[C@H]7O)[C@H]6O[C@@H]6O[C@@H](CO)[C@H](O)[C@H]6O)C(C)(C)[C@@H]5CC[C@@]4(C)[C@@]34CO[C@@]2(C4)O1` [bacoside A3], for which the pIC50 on CYP2D6, at CYP3A4, on CYP2C9, at CYP2C19 and on CYP1A2 was < 4.00 throughout. On CYP2D6 (concentrations up to 100 µM), the “Inhibition of CYP2D6 in words” value is reported as “negligible inhibition”. Moreover, the “Inhibition of CYP3A4 in words” value at CYP3A4 (concentrations up to 100 µM) is “negligible inhibition”. For the same molecule, on CYP2C9 (concentrations up to 100 µM), the “Inhibition of CYP2C9 in words” value is “negligible inhibition”. On CYP2C19 (concentrations up to 100 µM), the “Inhibition of CYP2C19 in words” value is “negligible inhibition”. The “Inhibition of CYP1A2 in words” value at CYP1A2 (concentrations up to 100 µM) is listed as “negligible inhibition”.

Values taken from article PMC6271976, “Inhibition of Human Cytochrome P450 Enzymes by Bacopa monnieri Standardized Extract and Constituents” (Molecules, 2014).
